# According to ChEMBL document CHEMBL4725438, “Chiral Analogues of PFI-1 as BET Inhibitors and Their Functional Role in Myeloid Malignancies” (ACS Med Chem Lett, 2020):
# The source made the active and inactive calls. The calls are words filed in the database; no cut-off is given here.
# Columns and labels:
# [1] = biological target: Bromodomain-containing protein 4 (Homo sapiens) (UniProt O60885); test: Inhibition of BRD4 in human K562 cells harboring BCR-ABL assessed as decrease in metabolic activity at 10 uM measured after 72 hrs by MTT assay; format: cell-based
# [2] = biological target: Bromodomain-containing protein 4 (Homo sapiens) (UniProt O60885); test: Inhibition of BRD4 in human MOLM-14 cells harboring FLT3-ITD mutant assessed as decrease in metabolic activity at 10 uM measured after 72 hrs by MTT assay; format: cell-based
# [3] = biological target: Bromodomain-containing protein 4 (Homo sapiens) (UniProt O60885); test: Inhibition of BRD4 in human HEL cells harboring JAK2 V617F mutant assessed as decrease in metabolic activity at 10 uM measured after 72 hrs by MTT assay; format: cell-based
# K562 [4] = test: Inhibition of BET in human K562 cells harboring BCR-ABL assessed as decrease in AURKB protein expression at 5 uM measured after 48 hrs by Western blot analysis; format: cell-based
# HEL [5] = test: Inhibition of BET in human HEL cells harboring JAK2 V617F mutant assessed as increase in HEXIM1 protein expression at 5 uM measured after 24 to 48 hrs by Western blot analysis; format: cell-based; conditions: time hrs 24-48
# MOLM-14 [6] = test: Induction of apoptosis in human MOLM-14 cells harboring FLT3-ITD mutant assessed as cleavage of PARP-1 at 5 uM measured after 24 to 48 hrs by Western blot analysis; format: functional, cell-based; conditions: time hrs 24-48
# HEL [7] = test: Induction of apoptosis in human HEL cells harboring JAK2 V617F mutant assessed as cleavage of PARP-1 at 5 uM measured after 24 to 48 hrs by Western blot analysis; format: functional, cell-based; conditions: time hrs 24-48
# [8] = biological target: Bromodomain-containing protein 4 (Homo sapiens) (UniProt O60885); test: Inhibition of BRD4 in human HEL cells harboring JAK2 V617F mutant assessed as metabolic activity at 1 uM measured after 72 hrs by MTT assay relative to control; format: cell-based; design: Activity: scale not given: the % may be the effect or the level left
# MOLM-14 [9] = test: Inhibition of BET in human MOLM-14 cells harboring FLT3-ITD mutant assessed as increase in HEXIM1 protein expression at 5 uM measured after 24 to 48 hrs by Western blot analysis; format: cell-based; conditions: time hrs 24-48
# MOLM-14 [10] = test: Inhibition of BET in human MOLM-14 cells harboring FLT3-ITD mutant assessed as decrease in AURKB protein expression at 5 uM measured after 48 hrs by Western blot analysis; format: cell-based
# HEL [11] = test: Inhibition of BET in human HEL cells harboring JAK2 V617F mutant assessed as increase in HEXIM1 protein expression at 5 uM measured after 24 hrs by Western blot analysis; format: cell-based
# MOLM-14 [12] = test: Inhibition of BET in human MOLM-14 cells harboring FLT3-ITD mutant assessed as increase in HEXIM1 protein expression at 5 uM measured after 24 hrs by Western blot analysis; format: cell-based
# [13] = Cytotoxicity against human PBMC assessed as reduction in colony formation at 1 to 5 uM measured after 7 to 11 days; format: tissue-based; conditions: dose 1-5 µM, time 7-11 day
# [14] = Cytotoxicity against human CD34+ cells assessed as reduction in colony formation at 1 to 5 uM measured after 7 to 11 days; format: cell-based; conditions: cd34-positive (myeloid/lymphoid) cell, dose 1-5 µM, time 7-11 day
# [15] = biological target: Bromodomain-containing protein 2 (Homo sapiens) (UniProt P25440); test: Binding affinity to N-terminal His-tagged human recombinant BRD2 bromodomain 1 (71 to 194 residues) expressed in Escherichia coli assessed as change in melting temperature at 10 uM by BromoMELT assay
# Bromodomain-containing protein 2 (Homo sapiens), sequence (P25440 whole entry, looked up, the tested form may be a part): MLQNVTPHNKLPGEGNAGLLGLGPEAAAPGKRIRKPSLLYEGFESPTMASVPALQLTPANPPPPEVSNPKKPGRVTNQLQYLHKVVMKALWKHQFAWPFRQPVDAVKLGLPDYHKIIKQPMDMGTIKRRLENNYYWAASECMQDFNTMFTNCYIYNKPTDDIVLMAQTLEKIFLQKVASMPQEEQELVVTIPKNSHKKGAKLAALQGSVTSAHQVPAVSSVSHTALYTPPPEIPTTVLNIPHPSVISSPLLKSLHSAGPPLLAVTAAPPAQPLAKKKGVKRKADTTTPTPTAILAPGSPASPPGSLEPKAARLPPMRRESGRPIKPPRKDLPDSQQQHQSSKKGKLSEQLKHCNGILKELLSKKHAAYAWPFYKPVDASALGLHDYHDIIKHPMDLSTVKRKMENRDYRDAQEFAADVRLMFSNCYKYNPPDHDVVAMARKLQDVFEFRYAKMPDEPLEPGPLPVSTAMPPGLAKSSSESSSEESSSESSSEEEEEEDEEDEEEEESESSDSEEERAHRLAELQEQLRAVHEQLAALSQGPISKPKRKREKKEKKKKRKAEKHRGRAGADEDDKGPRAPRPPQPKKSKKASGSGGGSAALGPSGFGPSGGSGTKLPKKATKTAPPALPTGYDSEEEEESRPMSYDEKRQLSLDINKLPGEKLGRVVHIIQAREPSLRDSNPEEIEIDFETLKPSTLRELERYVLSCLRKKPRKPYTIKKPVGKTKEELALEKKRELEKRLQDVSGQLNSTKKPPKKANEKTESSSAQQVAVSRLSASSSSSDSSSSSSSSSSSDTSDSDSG
# K562 [16] = test: Inhibition of BET in human K562 cells harboring BCR-ABL assessed as increase in HEXIM1 protein expression at 5 uM measured after 24 to 48 hrs by Western blot analysis; format: cell-based; conditions: time hrs 24-48
# BMMC = test: Anticlonogenic activity against AML patient derived BMMC harboring FLT3-ITD/FLT3-TKD mutant assessed as reduction in colony formation at 1 to 5 uM measured after 7 to 11 days; format: functional, tissue-based; conditions: Homo sapiens, dose microM 1-5, time day 7-11
# [17] = biological target: Bromodomain-containing protein 4 (Homo sapiens) (UniProt O60885); test: Inhibition of BRD4 in human MOLM-14 cells harboring FLT3-ITD mutant assessed as cell cycle arrest by measuring increase in cell population at sub-G1 phase at 1 to 5 uM measured after 24 hrs by propidium iodide staining based FACS analysis; conditions: dose microM 1-5, time 24.0 hrs
# HEL [18] = test: Inhibition of BET in human HEL cells harboring JAK2 V617F mutant assessed as increase in HEXIM1 protein expression at 5 uM preincubated in medium for 24 to 48 hrs followed by cell addition and measured after 24 hrs by Western blot analysis; format: cell-based; conditions: time 96.0 hrs
# [19] = biological target: Bromodomain-containing protein 4 (Homo sapiens) (UniProt O60885); test: Binding affinity to N-terminal His-tagged human recombinant BRD4 bromodomain 1 (44-170 residues) expressed in Escherichia coli assessed as change in melting temperature at 10 uM by BromoMELT assay
# [20] = biological target: Bromodomain-containing protein 4 (Homo sapiens) (UniProt O60885); test: Inhibition of BRD4 in human HEL cells harboring JAK2 V617F mutant assessed as cell cycle arrest by measuring decrease in cell population at S phase at 1 to 5 uM measured after 24 hrs by propidium iodide staining based FACS analysis; conditions: dose microM 1-5, time 24.0 hrs
# [21] = biological target: Bromodomain-containing protein 4 (Homo sapiens) (UniProt O60885); test: Inhibition of BRD4 in human MOLM-14 cells harboring FLT3-ITD mutant assessed as reduction in cell proliferation at 1 to 5 uM after 72 hrs by tryphan blue staining based assay; conditions: dose microM 1-5, time 72.0 hrs
# [22] = biological target: Bromodomain-containing protein 4 (Homo sapiens) (UniProt O60885); test: Inhibition of BRD4 in human HEL cells harboring JAK2 V617F mutant assessed as reduction in cell proliferation at 1 to 5 uM after 72 hrs by tryphan blue staining based assay; conditions: dose microM 1-5, time 72.0 hrs
# [23] = biological target: Bromodomain-containing protein 4 (Homo sapiens) (UniProt O60885); test: Inhibition of BRD4 in human HEL cells harboring JAK2 V617F mutant assessed as cell cycle arrest by measuring increase in cell population at G0/G1 phase at 1 to 5 uM measured after 24 hrs by propidium iodide staining based FACS analysis; conditions: dose microM 1-5, time 24.0 hrs
# [24] = biological target: Bromodomain-containing protein 4 (Homo sapiens) (UniProt O60885); test: Inhibition of BRD4 in human HEL cells harboring JAK2 V617F mutant assessed as cell viability at 5 uM measured after 72 hrs by tryphan blue staining based assay relative to control
# [25] = biological target: Bromodomain-containing protein 4 (Homo sapiens) (UniProt O60885); test: Inhibition of BRD4 in human HEL cells harboring JAK2 V617F mutant assessed as cell cycle arrest by measuring increase in cell population at sub-G1 phase at 1 to 5 uM measured after 24 hrs by propidium iodide staining based FACS analysis; conditions: dose microM 1-5, time 24.0 hrs
# [26] = biological target: Bromodomain-containing protein 4 (Homo sapiens) (UniProt O60885); test: Inhibition of BRD4 in human MOLM-14 cells harboring FLT3-ITD mutant assessed as cell cycle arrest by measuring decrease in cell population at S phase at 1 to 5 uM measured after 24 hrs by propidium iodide staining based FACS analysis; conditions: dose microM 1-5, time 24.0 hrs
# [27] = biological target: Bromodomain-containing protein 4 (Homo sapiens) (UniProt O60885); test: Inhibition of BRD4 in human K562 cells harboring BCR-ABL assessed as reduction in cell proliferation at 1 to 5 uM after 72 hrs by tryphan blue staining based assay; conditions: dose microM 1-5, time 72.0 hrs
# MOLM-14 [28] = test: Inhibition of BET in human MOLM-14 cells harboring FLT3-ITD mutant assessed as increase in HEXIM1 protein expression at 5 uM preincubated in medium for 24 to 48 hrs followed by cell addition and measured after 24 hrs by Western blot analysis; format: cell-based; conditions: time 96.0 hrs
# [29] = biological target: Bromodomain-containing protein 4 (Homo sapiens) (UniProt O60885); test: Inhibition of BRD4 in human MOLM-14 cells harboring FLT3-ITD mutant assessed as cell cycle arrest by measuring increase in cell population at G0/G1 phase at 1 to 5 uM measured after 24 hrs by propidium iodide staining based FACS analysis; conditions: dose microM 1-5, time 24.0 hrs
# [30] = biological target: Bromodomain-containing protein 4 (Homo sapiens) (UniProt O60885); test: Inhibition of BRD4 in human K562 cells harboring BCR-ABL assessed as decrease in metabolic activity at 0.01 to 20 uM measured after 72 hrs by MTT assay; format: cell-based; conditions: dose microM 0.01-20, time 72.0 hrs
# K562 [31] = test: Induction of apoptosis in human K562 cells harboring BCR-ABL assessed as cleavage of PARP-1 at 5 uM measured after 24 to 48 hrs by Western blot analysis; format: functional, cell-based; conditions: time hrs 24-48
# HEL [32] = test: Inhibition of BET in human HEL cells harboring JAK2 V617F mutant assessed as decrease in AURKB protein expression at 5 uM measured after 24 to 48 hrs by Western blot analysis; format: cell-based; conditions: time hrs 24-48
# MOLM-14 [33] = test: Inhibition of BET in human MOLM-14 cells harboring FLT3-ITD mutant assessed as decrease in AURKB protein expression at 5 uM measured after 24 to 48 hrs by Western blot analysis; format: cell-based; conditions: time hrs 24-48
# [34] = biological target: Bromodomain-containing protein 4 (Homo sapiens) (UniProt O60885); test: Inhibition of BRD4 in human MOLM-14 cells harboring FLT3-ITD mutant assessed as metabolic activity at 1 uM measured after 72 hrs by MTT assay relative to control; format: cell-based; design: scale not given: the % may be the effect or the level left
# [35] = biological target: Bromodomain-containing protein 4 (Homo sapiens) (UniProt O60885); test: Inhibition of BRD4 in human MOLM-14 cells harboring FLT3-ITD mutant assessed as cell viability at 5 uM measured after 72 hrs by tryphan blue staining based assay relative to control
# K562 [36] = test: Inhibition of BET in human K562 cells harboring BCR-ABL assessed as increase in HEXIM1 protein expression at 5 uM preincubated in medium for 24 to 48 hrs followed by cell addition and measured after 24 hrs by Western blot analysis; format: cell-based; conditions: time 96.0 hrs
smiles,measurement,setting,value
CN1Cc2cc(N=S(C)(=Nc3ccccc3)c3ccccc3)ccc2NC1=O (stereo unspecified),inhibition,[1],inactive
same,inhibition,[2],Active
same,inhibition,[3],Active
CN1Cc2cc(N=S(C)(=N)c3ccccc3)ccc2NC1=O (stereo unspecified),inhibition,[1],inactive
same,inhibition,[2],Active
same,inhibition,[3],Active
COc1ccccc1S(C)(=O)=Nc1ccc2c(c1)CN(C)C(=O)N2 (stereo unspecified),inhibition,[1],inactive
same,inhibition,[2],Active
same,inhibition,[3],Active
CN1Cc2cc(N=[S@](C)(=O)c3ccccc3)ccc2NC1=O,inhibition,K562 [4],Active
same,inhibition,HEL [5],inactive
same,Activity,MOLM-14 [6],inactive
same,Activity,HEL [7],inactive
same,inhibition,[8],inactive
same,inhibition,MOLM-14 [9],inactive
same,inhibition,MOLM-14 [10],Active
COc1ccccc1S(=O)(=O)Nc1ccc2c(c1)CN(C)C(=O)N2,inhibition,HEL [11],Active
same,inhibition,MOLM-14 [12],Active
same,Activity,[13],Toxic
same,Activity,[14],Toxic
same,ΔTm,[15],3.5 °C
same,inhibition,K562 [16],Active
same,Activity,BMMC,Active
CN=S(C)(=Nc1ccc2c(c1)CN(C)C(=O)N2)c1ccccc1 (stereo unspecified),inhibition,[1],inactive
same,inhibition,[2],Active
same,inhibition,[3],Active
CN1Cc2cc(N=[S@@](C)(=O)c3ccccc3)ccc2NC1=O,inhibition,[17],Active
same,inhibition,HEL [18],Active
same,ΔTm,[19],5 °C
same,inhibition,[20],Active
same,inhibition,[21],Active
same,inhibition,[22],Active
same,inhibition,[23],Active
same,Activity,[24],55%
same,Activity,MOLM-14 [6],Active
same,inhibition,[25],Active
same,Activity,HEL [7],Active
same,inhibition,[26],Active
same,inhibition,[27],Active
same,Activity,[8],37%
same,inhibition,MOLM-14 [28],Active
same,inhibition,[29],Active
same,inhibition,HEL [11],Active
same,inhibition,MOLM-14 [12],Active
same,Activity,[13],Toxic
same,inhibition,[30],inactive
same,Activity,[14],Toxic
same,Activity,K562 [31],inactive
same,inhibition,HEL [32],Active
same,ΔTm,[15],3.5 °C
same,inhibition,MOLM-14 [33],Active
same,inhibition,K562 [16],Active
same,Activity,BMMC,Active
same,Activity,[34],55%
same,Activity,[35],57%
same,inhibition,K562 [36],Active
